One test deals with pancreas. The test is described as follows: In situ rat pancreatic perfusion, insulin and glucagon release. Set-up: species or system Wistar Han rats. The conditions noted are these: 500 nM compound, vs vehicle. The procedure: Male Wistar Han rats were purchased from Charles River Laboratories Inc. at 6 weeks of age and housed 2 per cage for two weeks with food and water ad libitum. In Situ Pancreatic perfusions were performed when the rats were eight weeks old. All procedures were performed in accordance with relevant guidelines and regulations. Food was removed 4-5 hours prior to surgery. For each surgery, the rat was fully sedated with 100 mg/kg intraperitoneal (i.p.) Na-pentobarbital (NEMBUTAL) anesthesia. The depth of anesthesia was determined by a “paw pinch” test. Surgery was not initiated until the rat was fully sedated. If necessary an additional 50 mg/kg i.p. dose (50% of original) of NEMBUTAL was given. The peritoneal cavity was opened and coeliac artery was ligated dorsally. […] cannula was inserted into coeliac artery for perfusant afflux. The left gastric artery was ligated at the esophagus-stomach junction. The hepatic portal vein was ligated dorsally and cannulated ventrally (25G cannula; towards liver) for perfusant efflux. Immediately following the surgery, the rat was placed into the perfusion chamber and perfused at 3 ml/minute with modified KREBS-RINGER buffers [see. […] et al. 2012 Reproductive biology and endocrinology 10:110]. The buffers and perfusion chamber were kept warm at 37° C. and saturated with an O^2/CO^2 gases mixture. The buffers were 2 mM or 16 mM glucose and contained either vehicle (0.1%/DMSO) or Compound A (see Table 1) or 30 mM L-Arginine. The perfusant was collected by automated fraction collector at one sample per minute rate with about 90% rate of buffer recovery. Samples were frozen at -70° C. and later analyzed for total insulin and glucagon content. For the buffers: First the following mixture was prepared in water containing 10% NaCl (1.19M), 5% KCL (94 mM), 10% […] (250 mM), 5% CaCl2-2H2O (50 mM), 5% MgSO4-7H2O (24 mM), and 5% KH2PO4 (24 mM). The buffer was then oxygenated for 20 minutes, and 3% dextran and 0.2% BSA (insulin free) were added. Glucose was added from 1M stock solution as needed. FIGS. 4A-B illustrate a pancreatic perfusion assay in Wistar Han rats, and insulin (left panel) and glucagon (right panel) release measurements. As shown (lines with open circles), a basal level of insulin and a fair amount of glucagon were secreted from pancreas when perfused with low glucose (6 mM glucose). […] Application of GPR119 agonist (500 nM Compound A, lines with solid circles) enhanced both basal and glucose-stimulated pancreas insulin secretion (left panel).

The subject of a further test is male Wistar Han rats. The test is described as follows: Hyperinsulinemic-hypoglycemia clamp study. The class given is in vivo. The conditions noted are these: for change of systemic blood glucose level during clamp / glucose infusion rate needed to maintain blood glucose at 50 mg/dl: 60 minutes prior to clamp; for change of systemic blood glucose level during clamp: FIG. 6A; for glucose infusion rate needed to maintain blood glucose at 50 mg/dl: FIG. 6B; for systemic epinephrine release at hypoglycemic status: FIG. 7C; for c-peptide release: FIG. 7D. The procedure:
FIG. 5 illustrates a scheme and time-course depiction of the hyperinsulinemic-hypoglycemia clamp study performed in rats as described in EXAMPLE 4. Rats were recovered from surgery stress and pre-treated with vehicle, GLIBENCLAMIDE (5 mpk), or GPR119 agonist Compound B (10 mpk) 60 minutes prior to initiation of the clamp. From time zero, rats received an insulin bolus injection initially, then were simultaneously infused with insulin at a steady rate and glucose at an adjusted rate based on the plasma glucose level measured at every 10 minutes. Vertical bars indicate the time points when the blood specimens were collected for measurements of insulin, C-peptide, glucagon, and epinephrine/norepinephrine (0 min, 30 min, 60 min, 90 min and 120 min).
A hyperinsulinemic-hypoglycemia clamp study was performed in male Wistar Han rats as shown in FIG. 5 and described below to explore the potential roles of GPR119 agonists in regulating glucagon secretion at the hypoglycemic status. Three groups were studied, those treated with: (1) vehicle, (2) GPR119 agonist, Compound B, C, F, H, I, M and V (see Table 1 and Table 2), at 10, 30, 100, 100, 100, 30 and 30 mpk, respectively, or (3) GLIBENCLAMIDE, a sulfonylurea insulin secretagogue known to cause hypoglycemia, at 5 mpk. Blood samples (100-150 μl) were collected for insulin, C-peptide, glucagon, and epinephrine/norepinephrine measurements. Terminal bleeding was analyzed for PK measurement.
FIGS. 5, 6A-B, 7A-D and 8A-L illustrate the hyperinsulinemic-hypoglycemia clamp study of EXAMPLE 4. FIG. 5 is a scheme and time-course depiction of the hyperinsulinemic-hypoglycemia clamp study performed in rats. Vertical bars indicate the time points when the rats were infused with compound, or insulin/glucose, or blood specimens were collected for measurements of insulin, C-peptide, glucagon, and epinephrine/norepinephrine. After recovered from surgery stress, rats were pre-treated with vehicle, GLIBENCLAMIDE (5 mpk), or GPR119 agonist Compound B (10 mpk) 60 minutes prior to initiation of the clamp. From time zero, rats received an initial insulin bolus injection followed by simultaneous infusion of insulin at a steady rate and glucose at an adjusted rate. Rat plasma glucose levels (FIG. 6A) were monitored periodically, and the glucose infusion rate (FIG. 6B) was adjusted so that the blood glucose level would be maintained at 50 mg/dl.

[1] abbreviates: high glucose (12 mM glucose) perfusion.
The mark [2] stands for this setting: low glucose (6 mM glucose) perfusion.
Where [3] appears, read: 100 mpk, hypoglycemic status (50 mg/dL), FIGS. 8A-L.
[4] abbreviates: 30 mpk, hypoglycemic status (50 mg/dL), FIGS. 8A-L.

The values that follow come from patent US20180353507A1, “METHODS OF PREVENTING OR TREATING HYPOGLYCEMIA BY ADMINISTERING A GPR119 AGONIST” (Merck Sharp & Dohme Corp., priority 2015, published 2018).

SMILES strings stand for the structures.

As to `CC1(OC(=O)C2CC3COCC(C2)C3Oc2ncnc(Nc3ccc(C#N)cc3Cl)c2F)CC1` (centres unmarked) [Compound A], in the test with pancreas (setting [1]), the “glucose-repressed glucagon secretion from pancreas” value is “did not affect” and the “glucose-stimulated pancreas insulin secretion” value was “enhanced”. In addition, in the test with pancreas (setting [2]), the “basal glucagon release from pancreas” value is given as “elevated basal glucagon release” and the “basal pancreas insulin secretion” value is “enhanced”.

Turning to `CCc1cnc(N2CCC(c3nc(COc4ccc(-n5cnnn5)cc4)cs3)CC2)nc1` [Compound H], the “blood glucagon secretion at hypoglycemic status” value (from here on “blood glucagon secretion”) in the test with male Wistar Han rats (setting [3]) is reported as “significantly elevated”.

On to `COCc1cnc(N2CCC([C@H]3C[C@H]3CCOc3cc(F)c(CC(=O)N4CCC4)c(F)c3)CC2)nc1` [Compound B], for which, in the test on male Wistar Han rats (10 mpk, compared with vehicle), the “change of systemic blood glucose level during clamp” value was “comparable and slower”; the “glucose infusion rate needed to maintain blood glucose at 50 mg/dl” value was “comparable and slower”. Further, in the test with male Wistar Han rats (10 mpk), the “systemic epinephrine release at hypoglycemic status” value is given as “only slightly altered” and the c-peptide release entry was “indistinguishable from vehicle control”. In addition, the “blood glucagon secretion” value in the test with male Wistar Han rats (10 mpk, blood glucose dropping to 50 mg/dL, 15-60 minutes, FIGS. 7A-B) is listed as “significantly elevated”.

For the compound `CS(=O)(=O)c1ccc(OCC[C@@H]2C[C@@H]2C2CCN(c3ncc(Cl)cn3)CC2)nc1` [Compound C], the “blood glucagon secretion” value with male Wistar Han rats (setting [4]) is “significantly elevated”.

On to `COc1c(Nc2ccc(S(C)(=O)=O)nc2C)ncnc1OC1CCN(C(=O)OC(C)C)CC1` [Compound F], for which the “blood glucagon secretion” value in the test on male Wistar Han rats (setting [3]) was “significantly elevated”.

For `COCc1noc(N2CCC([C@H]3C[C@H]3CCOc3ccc(S(C)(=O)=O)c(F)c3)CC2)n1` [Compound M], the “blood glucagon secretion” value with male Wistar Han rats (setting [4]) is “significantly elevated”.

`C[S+]([O-])c1ccc(OCCCC2CCN(C(=O)OC(C)(C)C)CC2)cc1F` (centres unmarked) [Compound I]: the “blood glucagon secretion” value with male Wistar Han rats (setting [3]) is “significantly elevated”.

For `COc1ccc(Cl)cc1C(=O)NCCc1ccc(S(=O)(=O)NC(=O)NC2CCCCC2)cc1` [GLIBENCLAMIDE, glibenclamide, reference compound], in the test on male Wistar Han rats (5 mpk), the “change of systemic blood glucose level during clamp” value is listed as “rapidly decreases blood glucose level”, the “glucose infusion rate needed to maintain blood glucose at 50 mg/dl” value is listed as “requires much faster glucose infusion rate”, the “systemic epinephrine release at hypoglycemic status” value is reported as “inhibited this elevation” and the c-peptide release result is reported as “promotes c-peptide release”. The “blood glucagon secretion” value in the test on male Wistar Han rats (5 mpk, blood glucose dropping to 50 mg/dL, 15-60 minutes, FIGS. 7A-B) is reported as “suppressed glucagon secretion”.

For the compound `CCc1noc(N2CCC([C@H]3C[C@H]3CCOc3ccc(S(C)(=O)=O)cn3)CC2)n1` [Compound V], the “blood glucagon secretion” value with male Wistar Han rats (setting [4]) was “significantly elevated”.
